15 compounds from patent US10472336B2, “Modulators of indoleamine 2,3-dioxygenase” (GlaxoSmithKline Intellectual Property (No.2) Limited, priority 2015, dated 2019) can be followed below.

Where a name gives a salt, the structure may show the parent alone.

For assay [1], the target named is T1, indoleamine 2, 3-dioxygenase (IDO1) (Homo sapiens, UniProt P14902). Put plainly: PBMC IDOi assay (kynurenine detection by mass spectrometry). It counts as cell-based. Particulars: IFN-γ and LPS stimulated human PBMC, 2 days. The procedure:
Compounds of the present invention were tested via high-throughput cellular assays utilizing detection of kynurenine via mass spectrometry and cytotoxicity as end-points. For the mass spectrometry and cytotoxicity assays, human peripheral blood mononuclear cells (PBMC) (PB003F; AllCells®, Alameda, Calif.) were stimulated with human interferon-γ (IFN-γ) (Sigma-Aldrich Corporation, St. Louis, Mo.) and lipopolysaccharide from Salmonella minnesota (LPS) (Invivogen, San Diego, Calif.) to induce the expression of indoleamine 2, 3-dioxygenase (IDO1). Compounds with IDO1 inhibitory properties decreased the amount of kynurenine produced by the cells via the tryptophan catabolic pathway. Cellular toxicity due to the effect of compound treatment was measured using CellTiter-Glo® reagent (CTG) (Promega Corporation, Madison, Wis.), which is based on luminescent detection of ATP, an indicator of metabolically active cells.
In preparation for the assays, test compounds were serially diluted 3-fold in DMSO from a typical top concentration of 5 mM and plated at 0.5 μL in 384-well, polystyrene, clear bottom, tissue culture treated plates with lids (Greiner Bio-One, Kremsmünster, Austria) to generate 11-point dose response curves. Low control wells (0% kynurenine or 100% cytotoxicity) contained either 0.5 μL of DMSO in the presence of unstimulated (−IFN-γ/−LPS) PBMCs for the mass spectrometry assay or 0.5 μL of DMSO in the absence of cells for the cytotoxicity assay, and high control wells (100% kynurenine or 0% cytotoxicity) contained 0.5 μL of DMSO in the presence of stimulated (+IFN-γ/+LPS) PBMCs for both the mass spectrometry and cytotoxicity assays.
Frozen stocks of PBMCs were washed and recovered in RPMI 1640 medium (Thermo Fisher Scientific, Inc., Waltham, Mass.) supplemented with 10% v/v heat-inactivated fetal bovine serum (FBS) (Thermo Fisher Scientific, Inc., Waltham, Mass.), and 1× penicillin-streptomycin antibiotic solution (Thermo Fisher Scientific, Inc., Waltham, Mass.). The cells were diluted to 1,000,000 cells/mL in the supplemented RPMI 1640 medium. 50 μL of either the cell suspension, for the mass spectrometry assay, or medium alone, for the cytotoxicity assay, were added to the low control wells, on the previously prepared 384-well compound plates, resulting in 50,000 cells/well or 0 cells/well respectively. IFN-γ and LPS were added to the remaining cell suspension at final concentrations of 100 ng/ml and 50 ng/ml respectively, and 50 μL of the stimulated cells were added to all remaining wells on the 384-well compound plates. The plates, with lids, were then placed in a 37° C., 5% CO2 humidified incubator for 2 days.
Following incubation, the 384-well plates were removed from the incubator and allowed to equilibrate to room temperature for 30 minutes. For the cytotoxicity assay, CellTiter-Glo® was prepared according to the manufacturer's instructions, and 40 μL were added to each plate well. After a twenty minute incubation at room temperature, luminescence was read on an EnVision® Multilabel Reader (PerkinElmer Inc., Waltham, Mass.). For the mass spectrometry assay, 10 μL of supernatant from each well of the compound-treated plates were added to 40 μL of acetonitrile, containing 10 μM of an internal standard for normalization, in 384-well, polypropylene, V-bottom plates (Greiner Bio-One, Kremsmünster, Austria) to extract the organic analytes. Following centrifugation at 2000 rpm for 10 minutes, 10 μL from each well of the acetonitrile extraction plates were added to 90 μL of sterile, distilled H2O in 384-well, polypropylene, V-bottom plates for analysis of kynurenine and the internal standard on the RapidFire 300 (Agilent Technologies, Santa Clara, Calif.) and 4000 QTRAP MS (SCIEX, Framingham, Mass.). MS data were integrated using Agilent Technologies' RapidFire Integrator software, and data were normalized for analysis as a ratio of kynurenine to the internal standard. […]

Assay [2] addresses T1, indoleamine 2, 3-dioxygenase (IDO1). Briefly: HeLa IDOi assay (kynurenine detection by mass spectrometry). The arrangement: human epithelial HeLa cells (CCL-2; host or cells: HeLa cells stimulated with human IFN-γ. Particulars: IFN-γ stimulated human epithelial HeLa cells, 2 days. It counts as cell-based. Put shortly:
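HeLa cells (5,000/well) stimulated with 10 nM IFN-γ to induce IDO1 were exposed to 11-point compound dilutions for 2 days at 37 °C. Supernatant kynurenine was measured by RapidFire MS as a ratio to internal standard; cytotoxicity was read with CellTiter-Glo. Four-parameter fits gave pIC50 and pCC50.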

T1 sequence (P14902 whole entry): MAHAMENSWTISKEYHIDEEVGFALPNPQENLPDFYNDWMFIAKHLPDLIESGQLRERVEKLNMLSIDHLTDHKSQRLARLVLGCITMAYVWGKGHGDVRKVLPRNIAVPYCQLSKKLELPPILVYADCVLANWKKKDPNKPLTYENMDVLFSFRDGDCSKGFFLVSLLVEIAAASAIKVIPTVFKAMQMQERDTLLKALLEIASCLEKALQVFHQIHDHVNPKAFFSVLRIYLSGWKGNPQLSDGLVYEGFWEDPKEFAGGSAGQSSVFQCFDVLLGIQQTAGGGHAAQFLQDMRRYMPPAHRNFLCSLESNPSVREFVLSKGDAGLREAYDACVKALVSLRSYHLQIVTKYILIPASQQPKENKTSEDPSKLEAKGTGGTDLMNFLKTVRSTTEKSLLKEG

`CC(C)CN(CC(C)C)c1ccc(C(C)CC(=O)O)cc1Nc1ccncc1` (stereo not drawn) [Example 18, 3-(4-(diisobutylamino)-3-(pyridin-4-ylamino)phenyl)butanoic acid]: the EC50 in assay [1] is 200 nM; in assay [2] it was 316 nM.
The like results for `CC(C)CN(c1ccc([C@@H](C)CC(=O)O)cc1Nc1nnc(C2CC2)s1)C1CCCCC1` [Example 57, (S)-3-(4-(cyclohexyl(isobutyl)amino)-3-((5-cyclopropyl-1,3,4-thiadiazol-2-yl)amino)phenyl)butanoic acid] were, in that order, 0.631 nM and 2 nM.
The like results for `Cc1ccccc1CNc1cc(C(C)CC(=O)O)ccc1N(CC(C)C)C1CCCCC1` (stereo not drawn) [Example 23, 3-(4-(cyclohexyl(isobutyl)amino)-3-((2-methylbenzyl)amino)phenyl)butanoic acid] were, in that order, 200 nM and 316 nM.
For `CC(C)CN(CC(C)C)c1ccc(C(C)CC(=O)O)cc1Nc1nc(C(F)(F)F)ns1` (stereo not drawn) [Example 34, 3-(4-(diisobutylamino)-3-((3-(trifluoromethyl)-1,2,4-thiadiazol-5-yl)amino)phenyl)butanoic acid], the EC50 in assay [1] is 5.01 nM; in assay [2] it was 3.98 nM.
The like results for `CC(C)CN(c1ccc(C(C)CC(=O)O)cc1NC1CCCCC1)C1CCCCC1` (stereo not drawn) [Example 19, 3-(4-(cyclohexyl(isobutyl)amino)-3-(cyclohexylamino)phenyl)butanoic acid] were, in that order, 50.1 nM and 100 nM.
As to `CC(C)CN(CC(C)C)c1ccc([C@@H](C)CC(=O)O)cc1Nc1nc(Cl)ns1` [Example 41, (S)-3-(3-((3-chloro-1,2,4-thiadiazol-5-yl)amino)-4-(diisobutylamino)phenyl)butanoic acid], the values for the EC50 in assay [1] and in assay [2] were 10 nM and 63.1 nM, respectively.
As to `COc1nccc(Nc2cc(C(C)CC(=O)O)ccc2N(CC(C)C)CC(C)C)n1` (stereo not drawn) [Example 12, 3-(4-(diisobutylamino)-3-((2-methoxypyrimidin-4-yl)amino)phenyl)butanoic acid, 2,2,2-trifluoroacetic acid salt], the values for the EC50 in assay [1] and in assay [2] were 158 nM and 126 nM, respectively.
On the same counts, the results for `CC(C)CN(c1ccc([C@@H](C)CC(=O)O)cc1Nc1ccnc(Cl)n1)C1CCCCC1` [Example 62, (S)-3-(3-((2-chloropyrimidin-4-yl)amino)-4-(cyclohexyl(isobutyl)amino)phenyl)butanoic acid] are 2.51 nM and 3.98 nM.
Regarding `CC(C)CN(c1ccc([C@H](C)CC(=O)O)cc1Nc1nc(Cl)ns1)C1CCCCC1` [Example 40, (R)-3-(3-((3-chloro-1,2,4-thiadiazol-5-yl)amino)-4-(cyclohexyl(isobutyl)amino)phenyl)butanoic acid], the EC50 in assay [1] is 0.631 nM; in assay [2], 6.31 nM.
For the compound `CC(C)CN(CC(C)C)c1ccc(C(C)CC(=O)O)cc1Nc1cnccn1` (stereo not drawn) [Example 58, 3-(4-(diisobutylamino)-3-(pyrazin-2-ylamino)phenyl)butanoic acid], the concentration for a half-maximal effect (EC50) was 158 nM in assay [1] and 316 nM in assay [2].
Regarding `Cc1nnc(Nc2cc(C(C)CC(=O)O)ccc2N(CC(C)C)CC(C)C)[nH]1` (stereo not drawn) [Example 47, 3-(4-(diisobutylamino)-3-((5-methyl-4H-1,2,4-triazol-3-yl)amino)phenyl)butanoic acid], the figures for the EC50 in assay [1] and in assay [2] were 200 nM and 158 nM, respectively.
As to `CC(C)CN(c1ccc(C(C)CC(=O)O)cc1NC1=N[C@H](C(F)(F)F)CS1)C1CCCCC1` (stereo partly drawn) [Example 75, 3-(4-(Cyclohexyl(isobutyl)amino)-3-(((R)-4-(trifluoromethyl)-4,5-dihydrothiazol-2-yl)amino)phenyl)butanoic Acid], the values for the EC50 in assay [1] and in assay [2] were 63.1 nM and 31.6 nM, respectively.
Take `CC(C)CN(CC(C)C)c1ccc([C@H](C)CC(=O)O)cc1Nc1nc(Cl)ns1` [Example 42, (R)-3-(3-((3-chloro-1,2,4-thiadiazol-5-yl)amino)-4-(diisobutylamino)phenyl)butanoic acid]: the EC50 in assay [1] is 7.94 nM; in assay [2], 39.8 nM.
Take `CC(C)CN(c1ccc([C@H](C)CC(=O)O)cc1Nc1nnc(C2CC2)s1)C1CCCCC1` [Example 56, (R)-3-(4-(cyclohexyl(isobutyl)amino)-3-((5-cyclopropyl-1,3,4-thiadiazol-2-yl)amino)phenyl)butanoic acid]: the EC50 in assay [1] was 0.251 nM; in assay [2] it was 3.16 nM.
On to `CC(C)CN(c1ccc([C@H](C)CC(=O)O)cc1Nc1nnc(C2CC2)[nH]1)C1CCCCC1` [Example 50, (R)-3-(4-(cyclohexyl(isobutyl)amino)-3-((5-cyclopropyl-4H-1,2,4-triazol-3-yl)amino)phenyl)butanoic acid], for which the EC50 was 2.51 nM in assay [1] and 10 nM in assay [2].

The EC50 is the midpoint of the concentration-response curve.
